Test results reported in US10336702B2, “Pharmaceutically active compounds” (BERGENBIO ASA, priority 2015, dated 2019).

How the values were obtained:
[1] = biological target: T1, Akt1 (Homo sapiens, UniProt P31749); assay: Akt activation assay (PDK1-mediated activation, LANCE Ultra crosstide TR-FRET), Akt1; assay type: biochemical; details: read-out: Biological Assay 1 IC50 (nM) Akt1
T1 construct: unspecified tag, removed (detagged) (cleaved yes); purchased SignalChem and Proteros (Akt1); Merck Millipore (PDK1) 14-452 (PDK1); none given for Akt1
T1 sequence (P31749 whole entry): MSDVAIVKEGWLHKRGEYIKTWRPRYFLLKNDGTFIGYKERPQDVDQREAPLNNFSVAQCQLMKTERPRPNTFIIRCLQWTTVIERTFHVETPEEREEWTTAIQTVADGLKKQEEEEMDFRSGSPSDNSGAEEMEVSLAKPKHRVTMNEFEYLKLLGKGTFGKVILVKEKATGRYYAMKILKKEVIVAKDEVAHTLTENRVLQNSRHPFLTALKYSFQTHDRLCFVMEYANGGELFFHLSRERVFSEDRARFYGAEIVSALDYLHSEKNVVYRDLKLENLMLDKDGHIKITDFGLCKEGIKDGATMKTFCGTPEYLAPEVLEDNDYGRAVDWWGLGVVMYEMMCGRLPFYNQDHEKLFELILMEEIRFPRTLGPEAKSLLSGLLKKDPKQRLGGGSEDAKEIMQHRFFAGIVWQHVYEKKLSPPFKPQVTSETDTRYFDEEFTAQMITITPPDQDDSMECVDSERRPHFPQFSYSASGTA
Procedure, shortened: (§1)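 Unactivated Akt (5 nM Akt1, 15 or 5 nM Akt2, 3 or 5 nM Akt3, by supplier) preincubated with compound, then activated by 5 nM PDK1 on DOPS/DOPC/PtdIns(3,4,5)P3 vesicles with 100 μM ATP and 100 nM Ulight-crosstide, pH 7.5, 30 min. Eu-anti-phospho-crosstide TR-FRET (665/615 nm); IC50 by 4-parameter fit.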

[2] = biological target: T2, Akt2 (Homo sapiens, UniProt P31751); assay: Akt activation assay (PDK1-mediated activation, LANCE Ultra crosstide TR-FRET), Akt2; assay type: biochemical; details: read-out: Biological Assay 1 IC50 (nM) Akt2
T2 construct: unspecified tag, removed (detagged) (cleaved yes); purchased SignalChem and Proteros (Akt2); Merck Millipore (PDK1) 14-452 (PDK1); none given for Akt2
T2 sequence (P31751 whole entry): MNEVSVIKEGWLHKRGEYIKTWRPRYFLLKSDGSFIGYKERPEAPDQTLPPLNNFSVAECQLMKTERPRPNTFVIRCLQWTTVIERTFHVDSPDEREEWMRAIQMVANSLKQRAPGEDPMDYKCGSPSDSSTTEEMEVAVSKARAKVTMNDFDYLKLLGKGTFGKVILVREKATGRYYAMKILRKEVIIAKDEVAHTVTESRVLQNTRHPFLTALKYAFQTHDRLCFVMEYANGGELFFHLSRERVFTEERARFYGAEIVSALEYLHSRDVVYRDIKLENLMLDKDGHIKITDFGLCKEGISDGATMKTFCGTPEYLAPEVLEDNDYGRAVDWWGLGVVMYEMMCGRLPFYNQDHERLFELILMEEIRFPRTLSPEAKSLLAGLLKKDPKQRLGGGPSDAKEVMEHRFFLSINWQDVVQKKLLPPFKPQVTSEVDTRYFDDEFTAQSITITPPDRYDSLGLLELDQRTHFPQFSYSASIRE
Procedure, shortened: as §1

[3] = biological target: T3, Akt3 (Homo sapiens, UniProt Q9Y243); assay: Akt activation assay (PDK1-mediated activation, LANCE Ultra crosstide TR-FRET), Akt3; assay type: biochemical; details: read-out: Biological Assay 1 IC50 (nM) Akt3
T3 construct: unspecified tag, removed (detagged) (cleaved yes); purchased SignalChem and Proteros (Akt3); Merck Millipore (PDK1) 14-452 (PDK1); none given for Akt3
T3 sequence (Q9Y243 whole entry): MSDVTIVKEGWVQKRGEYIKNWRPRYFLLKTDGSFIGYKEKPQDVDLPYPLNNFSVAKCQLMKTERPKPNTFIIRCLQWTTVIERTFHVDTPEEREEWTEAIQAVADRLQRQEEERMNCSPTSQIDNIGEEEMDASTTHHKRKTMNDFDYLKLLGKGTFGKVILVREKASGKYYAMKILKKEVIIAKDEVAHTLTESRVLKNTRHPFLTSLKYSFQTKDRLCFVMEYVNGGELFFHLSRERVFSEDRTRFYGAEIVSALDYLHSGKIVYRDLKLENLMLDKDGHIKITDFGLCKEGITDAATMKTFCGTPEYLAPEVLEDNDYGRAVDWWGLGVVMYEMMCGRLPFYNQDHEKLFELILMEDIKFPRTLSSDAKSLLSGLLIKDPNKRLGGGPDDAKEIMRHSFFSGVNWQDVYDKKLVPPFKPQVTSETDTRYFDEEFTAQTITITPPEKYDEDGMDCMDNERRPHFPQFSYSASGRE
Procedure, shortened: as §1

[4] = biological target: T4, p-Akt1 in LNCaP cells (Homo sapiens, UniProt P31749); assay: Phospho-Akt cellular SureFire assay, p-Akt1 in LNCaP cells; assay type: cell-based; details: read-out: Biological Assay 2 IC50 (nM) Akt1 LNCaP
T4 construct: SureFire assays to detect cellular p-Akt1, p-Akt2 and p-Akt3 levels in WM115 cells (Akt2/3) and LNCaP cells (Akt1); endogenous in cells; host or cells: LNCaP (ECACC 89110211)
T4 sequence (P31749 whole entry): as the sequence (P31749 whole entry) above
Procedure, shortened: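 LNCaP cells, 5×10^4/well, seeded overnight, switched to 0.1% FBS medium without insulin stimulation, then compound for 15 min at 37 °C (0.3% DMSO). Lysate p-Akt1 (pThr308) by AlphaScreen SureFire, two 2 h incubations at room temperature; IC50 by 4-parameter fit.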

[5] = biological target: T5, p-Akt2 in WM115 cells (Homo sapiens, UniProt P31751); assay: Phospho-Akt cellular SureFire assay, p-Akt2 in WM115 cells; assay type: cell-based; details: insulin stimulated, read-out: Biological Assay 2 IC50 (nM) Akt2 WM115
T5 construct: SureFire assays to detect cellular p-Akt1, p-Akt2 and p-Akt3 levels in WM115 cells (Akt2/3) and LNCaP cells (Akt1); endogenous in cells; host or cells: WM115 (ECACC 91061232), insulin-stimulated
T5 sequence (P31751 whole entry): as the sequence (P31751 whole entry) above
Procedure, shortened: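 WM115 cells in 0.1% FBS medium stimulated 10 min with 100 nM insulin, then exposed to compound for 15 min at 37° C (0.3% DMSO final). Lysates assayed by AlphaScreen with anti-(pThr308)Akt and isoform-specific total Akt2 antibodies; IC50 from 4-parameter fit.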

[6] = biological target: T6, p-Akt3 in WM115 cells (Homo sapiens, UniProt Q9Y243); assay: Phospho-Akt cellular SureFire assay, p-Akt3 in WM115 cells; assay type: cell-based; details: insulin stimulated, read-out: Biological Assay 2 IC50 (nM) Akt3 WM115
T6 construct: SureFire assays to detect cellular p-Akt1, p-Akt2 and p-Akt3 levels in WM115 cells (Akt2/3) and LNCaP cells (Akt1); endogenous in cells; host or cells: WM115 (ECACC 91061232), insulin-stimulated
T6 sequence (Q9Y243 whole entry): as the sequence (Q9Y243 whole entry) above
Procedure, shortened: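 WM115 cells were serum-reduced to 0.1% FBS, stimulated with 100 nM insulin for 10 min, then exposed to compound (0.3% DMSO) for 15 min at 37 °C. Lysates were assayed for Thr308-phosphorylated Akt3 by AlphaScreen SureFire using an isoform-specific total Akt3 capture antibody. IC50 was derived from a 4-parameter fit.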

## CN([C@H]1CC[C@H](CC(=O)Nc2cnc(-c3ccc(C(C)(C)N)cc3)c(-c3ccccc3F)c2)CC1)S(C)(=O)=O [Example A26, N-(6-(4-(2-aminopropan-2-yl)phenyl)-5-(2-fluorophenyl)pyridin-3-yl)-2-(trans-4-(N-methylmethylsulfonamido)cyclo-hexyl)acetamide]
[1]
  IC50: > 30000 nM
[2]
  IC50: 3300 nM
[3]
  IC50: 740 nM
[4]
  IC50: > 30000 nM
[5]
  IC50: 7000 nM
[6]
  IC50: 390 nM

## N[C@]1(c2ccc(-c3nnc(NC(=O)C[C@H]4CC[C@H](N5CCOC5=O)CC4)cc3-c3ccccc3)cc2)C[C@@H](F)C1 [Example 45, N-(6-(4-(trans-1-amino-3-fluorocyclobutyl)phenyl)-5-phenylpyridazin-3-yl)-2-(trans-4-(2-oxooxazolidin-3-yl)cyclohexyl)acetamide]
[1]
  IC50: > 17000 nM
[2]
  IC50: 380 nM
[3]
  IC50: 67 nM
[4]
  IC50: > 30000 nM
[5]
  IC50: > 3600 nM
[6]
  IC50: 38 nM

## C[C@]1(O)C[C@@](N)(c2ccc(-c3nnc(NC(=O)C[C@H]4CC[C@H](N5CCOC5=O)CC4)cc3-c3ccccc3)cc2)C1 [Example 58, N-(6-(4-(trans-1-amino-3-hydroxy-3-methylcyclobutyl)phenyl)-5-phenylpyridazin-3-yl)-2-(trans-4-(2-oxooxazolidin-3-yl)cyclohexyl)acetamide]
[1]
  IC50: 1300 nM
[2]
  IC50: 98 nM
[3]
  IC50: 3 nM
[4]
  IC50: 4000 nM
[5]
  IC50: 750 nM
[6]
  IC50: 8 nM

## CN(C(=O)C1CC1)[C@H]1CC[C@H](CC(=O)Nc2cc(-c3ccccc3)c(-c3ccc([C@]4(N)C[C@H](F)C4)cc3)nn2)CC1 [Example 71, N-(trans-4-(2-((6-(4-(trans-1-amino-3-fluorocyclobutyl)phenyl)-5-phenylpyridazin-3-yl)amino)-2-oxoethyl)cyclohexyl)-N-methylcyclopropanecarboxamide]
[1]
  IC50: 10000 nM
[2]
  IC50: 350 nM
[3]
  IC50: 16 nM
[4]
  IC50: 9100 nM
[5]
  IC50: 1300 nM
[6]
  IC50: 44 nM

## CC(C)(N)c1ccc(-c2nnc(NC(=O)C[C@H]3CC[C@H](N4CCOC4=O)CC3)nc2-c2ccccc2)cc1 [Example 69, N-(6-(4-(2-aminopropan-2-yl)phenyl)-5-phenyl-1,2,4-triazin-3-yl)-2-(trans-4-(2-oxooxazolidin-3-yl)cyclohexyl)acetamide]
[1]
  IC50: > 30000 nM
[2]
  IC50: > 30000 nM
[3]
  IC50: 1800 nM
[4]
  IC50: > 30000 nM
[5]
  IC50: > 30000 nM
[6]
  IC50: 480 nM

## COC(=O)N(C)[C@H]1CC[C@H](CC(=O)Nc2cc(-c3ccccc3)c(-c3ccc([C@]4(N)C[C@](C)(O)C4)cc3)cn2)CC1 [Example 67, Methyl (trans-4-(2-((5-(4-(trans-1-amino-3-hydroxy-3-methylcyclobutyl)phenyl)-4-phenylpyridin-2-yl)amino)-2-oxoethyl)cyclohexyl)(methyl)carbamate]
[1]
  IC50: > 6500 nM
[2]
  IC50: 180 nM
[3]
  IC50: 8 nM
[4]
  IC50: > 9300 nM
[5]
  IC50: 1500 nM
[6]
  IC50: 37 nM

## N[C@]1(c2ccc(-c3cnc(NC(=O)C[C@H]4CC[C@H](N5CCOC5=O)CC4)cc3-c3ccccc3)cc2)C[C@@H](F)C1 [Example A53, N-(5-(4-(trans-1-amino-3-fluorocyclobutyl)phenyl)-4-phenylpyridin-2-yl)-2-(trans-4-(2-oxooxazolidin-3-yl)cyclohexyl)acetamide]
[1]
  IC50: > 30000 nM
[2]
  IC50: 480 nM
[3]
  IC50: 39 nM
[4]
  IC50: > 30000 nM
[5]
  IC50: 5400 nM
[6]
  IC50: 410 nM

## CN(C(=O)C1CC1)[C@H]1CC[C@H](CC(=O)Nc2cnc(-c3ccc(C(C)(C)N)cc3)c(-c3ccsc3)c2)CC1 [Example 27, N-(trans-4-(2-((6-(4-(2-aminopropan-2-yl)phenyl)-5-(thiophen-3-yl)pyridin-3-yl)amino)-2-oxoethyl)cyclohexyl)-N-methylcyclopropanecarboxamide]
[1]
  IC50: > 30000 nM
[2]
  IC50: 12000 nM
[3]
  IC50: 680 nM
[4]
  IC50: > 30000 nM
[5]
  IC50: 10000 nM
[6]
  IC50: 380 nM

## CC(=O)N(C)[C@H]1CC[C@H](CC(=O)Nc2cc(-c3ccccc3)c(-c3ccc(C4(N)CC(F)(F)C4)cc3)nn2)CC1 [Example 73, N-(6-(4-(1-amino-3,3-difluorocyclobutyl)phenyl)-5-phenylpyridazin-3-yl)-2-(trans-4-(N-methylacetamido)cyclohexyl)acetamide]
[1]
  IC50: > 30000 nM
[2]
  IC50: 540 nM
[3]
  IC50: 22 nM
[4]
  IC50: > 17000 nM
[5]
  IC50: 12000 nM
[6]
  IC50: 66 nM

## COC(=O)N(C)[C@H]1CC[C@H](CC(=O)Nc2cc(-c3ccccc3)c(-c3ccc(C4(N)CC(F)(F)C4)cc3)nn2)CC1 [Example 60, Methyl (trans-4-(2-((6-(4-(1-amino-3,3-difluorocyclobutyl)phenyl)-5-phenylpyridazin-3-yl)amino)-2-oxoethyl)cyclohexyl)(methyl)carbamate]
[1]
  IC50: > 30000 nM
[2]
  IC50: 710 nM
[3]
  IC50: 50 nM
[4]
  IC50: > 30000 nM
[5]
  IC50: 8800 nM
[6]
  IC50: 290 nM

## NC1(c2ccc(-c3cnc(NC(=O)C[C@H]4CC[C@H](N5CCOC5=O)CC4)cc3-c3ccccc3)cc2)CC1 [Example A51, N-(5-(4-(1-aminocyclopropyl)phenyl)-4-phenylpyridin-2-yl)-2-(trans-4-(2-oxooxazolidin-3-yl)cyclohexyl)acetamide]
[1]
  IC50: > 30000 nM
[2]
  IC50: 340 nM
[3]
  IC50: 42 nM
[4]
  IC50: > 30000 nM
[5]
  IC50: 2000 nM
[6]
  IC50: 150 nM

## NC1(c2ccc(-c3ncc(NC(=O)[C@@H](F)C4CCN(S(=O)(=O)C5CC5)CC4)cc3-c3ccccc3)cc2)CCC1 [Example 50, (S)—N-(6-(4-(1-aminocyclobutyl)phenyl)-5-phenylpyridin-3-yl)-2-(1-(cyclopropylsulfonyl)piperidin-4-yl)-2-fluoroacetamide]
[1]
  IC50: 5800 nM
[2]
  IC50: 670 nM
[3]
  IC50: 370 nM
[4]
  IC50: > 30000 nM
[5]
  IC50: 6800 nM
[6]
  IC50: 580 nM

## COC(=O)N(C)[C@H]1CC[C@H](CC(=O)Nc2cnc(-c3ccc(C(C)(C)N)c(F)c3)c(-c3ccccc3)c2)CC1 [Example A28, Methyl (trans-4-(2-((6-(4-(2-aminopropan-2-yl)-3-fluorophenyl)-5-phenylpyridin-3-yl)amino)-2-oxoethyl)cyclohexyl)(methyl)carbamate]
[1]
  IC50: > 30000 nM
[2]
  IC50: > 30000 nM
[3]
  IC50: 5900 nM
[4]
  IC50: > 30000 nM
[5]
  IC50: > 20000 nM
[6]
  IC50: 1500 nM

## CN(C(=O)C1CCC1)[C@H]1CC[C@H](CC(=O)Nc2cc(-c3ccccc3)c(-c3ccc(C4(N)CC4)cc3)nn2)CC1 [Example A93, N-(trans-4-(2-((6-(4-(1-aminocyclopropyl)phenyl)-5-phenylpyridazin-3-yl)amino)-2-oxoethyl)cyclohexyl)-N-methylcyclobutanecarboxamide]
[1]
  IC50: > 19000 nM
[2]
  IC50: 1400 nM
[3]
  IC50: 37 nM
[4]
  IC50: > 30000 nM
[5]
  IC50: 2600 nM
[6]
  IC50: 200 nM

## COC(=O)N(C)[C@H]1CC[C@H](CC(=O)Nc2cc(-c3ccccc3F)c(-c3ccc(C4(N)CCC4)cc3)cn2)CC1 [Example A63, Methyl (trans-4-(2-((5-(4-(1-aminocyclobutyl)phenyl)-4-(2-fluorophenyl)pyridin-2-yl)amino)-2-oxoethyl)cyclohexyl)(methyl)carbamate]
[1]
  IC50: > 30000 nM
[2]
  IC50: 5700 nM
[3]
  IC50: 120 nM
[4]
  IC50: > 30000 nM
[5]
  IC50: 6100 nM
[6]
  IC50: 470 nM

## CC(C)N(C(=O)C1CC1)[C@H]1CC[C@H](CC(=O)Nc2cc(-c3ccccc3)c(-c3ccc([C@]4(N)C[C@](C)(O)C4)cc3)nn2)CC1 [Example 105, N-(trans-4-(2-((6-(4-(trans-1-amino-3-hydroxy-3-methylcyclobutyl)phenyl)-5-phenylpyridazin-3-yl)amino)-2-oxoethyl)cyclohexyl)-N-isopropylcyclopropanecarboxamide]
[1]
  IC50: 4600 nM
[2]
  IC50: 210 nM
[3]
  IC50: 8 nM
[4]
  IC50: 5300 nM
[5]
  IC50: 1400 nM
[6]
  IC50: 26 nM
